Assay: physchem
Conditions: octanol/water, pH 7.4
Description: 1-octanol/aqueous buffer solution partition coefficient, log D of the compound at pH 7.4 by UV-HPLC method

| logD | Structure (SMILES) |
| --- | --- |
| 3.13 | CCC(NC(=O)N1CC(=O)Nc2cccnc21)c1ccc(N2CCC2)cc1 (configuration not stated) |
| 3.03 | COCC(NC(=O)N1CC(=O)Nc2cc(OC)cnc21)c1ccc(C(F)(F)F)cc1 (stereo in doubt; 34) |
